Test results: patent US20230085307A1, “PYRIDAZINONE COMPOUND AND HERBICIDE” (NISSAN CHEMICAL CORPORATION, priority 2019, published 2023)

Columns and labels:
velvetleaf = experiment: Test Example 4: herbicidal effect by soil treatment (Table 19, symbol M); assay type: in vivo, velvetleaf (Abutilon theophrasti)
Procedure, shortened: (§1)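 Herbicidal effect was rated 3 weeks after treatment, using the scoring criteria of an earlier test. The compound, formulated as an emulsion and diluted in water to a set herbicide amount, had been sprayed uniformly on soil over freshly sown seeds. Growth took place in a greenhouse at 25° C. to 30° C.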

lambsquarters [1] = experiment: Test Example 4: herbicidal effect by soil treatment (Table 19, symbol O); assay type: in vivo, lambsquarters (Chenopodium album)
Procedure, shortened: as §1

persian speedwell = experiment: Test Example 5: herbicidal effect by foliage application, plastic box (Table 20, symbol R); assay type: in vivo, Persian speedwell (Veronica persica); conditions: foliage application, three weeks after application
Procedure, shortened: (§2)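 Foliar spray test: emulsion formulation diluted in water to a set application rate, sprayed onto 14-day-old plants raised in diluvial soil at 25° C to 30° C under glass. Both herbicidal effect and crop effect rated visually three weeks later.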

false cleavers = experiment: Test Example 4: herbicidal effect by soil treatment (Table 19, symbol Q); assay type: in vivo, false cleavers (Galium spurium)
Procedure, shortened: as §1

chickweed = experiment: Test Example 5: herbicidal effect by foliage application, plastic box (Table 20, symbol P); assay type: in vivo, common chickweed (Stellaria media); conditions: foliage application, three weeks after application
Procedure, shortened: as §2

southern crabgrass [2] = experiment: Test Example 5: herbicidal effect by foliage application, plastic box (Table 20, symbol F); assay type: in vivo, southern crabgrass (Digitaria ciliaris); conditions: foliage application, three weeks after application
Procedure, shortened: as §2

rice flat sedge = experiment: Test Example 3: herbicidal effect by foliage application, Wagner pot (Table 18, symbol E); assay type: in vivo, rice flat sedge (Cyperus iria)
Procedure, shortened: (§3)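 Plants were sown in alluvial soil held under 0.1–0.5 cm standing water and grown 14 days in a greenhouse at 25–30 °C. An emulsifiable formulation, water-diluted to the set dose, was then sprayed onto the foliage, and effects were scored three weeks later using previously defined criteria.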

oval-leafed pondweed [3] = experiment: Test Example 1: herbicidal activity, application before weed generation under submerged conditions (Table 16, symbol C); assay type: in vivo, oval-leafed pondweed (Monochoria vaginalis)
Procedure, shortened: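 Alluvial soil was flooded to 4 cm depth, weed seeds were sown mixed and 2.5-leaf rice seedlings were transplanted. On sowing day, the compound's emulsion, diluted in water to a set dose, was applied to the water surface. Plants grew at 25–30 °C and were scored 0–5 after three weeks.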

windgrass [4] = experiment: Test Example 5: herbicidal effect by foliage application, plastic box (Table 20, symbol L); assay type: in vivo, windgrass (Apera spica-venti); conditions: foliage application, three weeks after application
Procedure, shortened: as §2

lambsquarters [5] = experiment: Test Example 5: herbicidal effect by foliage application, plastic box (Table 20, symbol O); assay type: in vivo, lambsquarters (Chenopodium album); conditions: foliage application, three weeks after application
Procedure, shortened: as §2

green foxtail = experiment: Test Example 5: herbicidal effect by foliage application, plastic box (Table 20, symbol G); assay type: in vivo, green foxtail (Setaria viridis); conditions: foliage application, three weeks after application
Procedure, shortened: as §2

oval-leafed pondweed [6] = experiment: Test Example 2: herbicidal activity, application during weed generation under submerged conditions (Table 17, symbol C); assay type: in vivo, oval-leafed pondweed (Monochoria vaginalis); conditions: application during weed generation, submerged conditions
Procedure, shortened: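 Steps: fill Wagner pots with alluvial soil; add water to give 4 cm depth; sow the species mixed; grow under glass at 25–30° C.; at 1–2 leaves apply water-diluted emulsion formulation to the water surface at a fixed herbicide amount; score after 3 weeks.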

Chinese sprangletop = experiment: Test Example 3: herbicidal effect by foliage application, Wagner pot (Table 18, symbol D); assay type: in vivo, chinese sprangletop (Leptochloa chinensis)
Procedure, shortened: as §3

redroot pigweed = experiment: Test Example 4: herbicidal effect by soil treatment (Table 19, symbol N); assay type: in vivo, redroot pigweed (Amaranthus retroflexus)
Procedure, shortened: as §1

barnyard grass = experiment: Test Example 5: herbicidal effect by foliage application, plastic box (Table 20, symbol H); assay type: in vivo, barnyard grass (Echinochloa crus-galli); conditions: foliage application, three weeks after application
Procedure, shortened: as §2

southern crabgrass [7] = experiment: Test Example 4: herbicidal effect by soil treatment (Table 19, symbol F); assay type: in vivo, southern crabgrass (Digitaria ciliaris)
Procedure, shortened: as §1

windgrass [8] = experiment: Test Example 4: herbicidal effect by soil treatment (Table 19, symbol L); assay type: in vivo, windgrass (Apera spica-venti); conditions: amount of applied herbicide 320 g/ha
Procedure, shortened: as §1

[9] = amount of applied herbicide 296 g/ha
[10] = amount of applied herbicide 320 g/ha

Q: What does the source list for CCCC(=O)Oc1c(C)nn(C)c(=O)c1-c1c(-c2ccccc2OC)sc2cc(OC)ccc12 [Compound No. 3-066, 5-(6-methoxy-2-(2-methoxyphenyl)benzo[b]thiophen-3-yl)-1,3-dimethyl-6-oxo-1,6-dihydropyridazin-4-yl=(n-butyrate)]?
A: M: velvetleaf, herbicidal effect grade (velvetleaf; [9]): 0 (Herbicidal rate of 5% or less (almost no effect)); O: lambsquarters, herbicidal effect grade (lambsquarters [1]; [9]): 0 (Herbicidal rate of 5% or less (almost no effect)); R: persian speedwell, herbicidal effect grade (persian speedwell; 296 g/ha): 1 (Herbicidal rate of 5% or more and less than 20%); Q: false cleavers, herbicidal effect grade (false cleavers; [9]): 2 (Herbicidal rate of 20% or more and less than 40%); P: chickweed, herbicidal effect grade (chickweed; 296 g/ha): 5 (Herbicidal rate of 90% or more (almost completely withered)); F: southern crabgrass, herbicidal effect grade (southern crabgrass [2]; 296 g/ha): 4 (Herbicidal rate of 70% or more and less than 90%); herbicidal effect on rice flat sedge (E) (rice flat sedge; 296 g/ha): 5 (Herbicidal rate of 90% or more (almost completely withered)); Herbicidal effect, C: oval-leafed pondweed (oval-leafed pondweed [3]; [9]): 5 (Herbicidal rate of 90% or more (almost completely withered)); L: windgrass, herbicidal effect grade (windgrass [4]; 296 g/ha): 5 (Herbicidal rate of 90% or more (almost completely withered)); O: lambsquarters, herbicidal effect grade (lambsquarters [5]; 296 g/ha): 5 (Herbicidal rate of 90% or more (almost completely withered)); G: green foxtail, herbicidal effect grade (green foxtail; 296 g/ha): 4 (Herbicidal rate of 70% or more and less than 90%); herbicidal effect rating, C: oval-leafed pondweed (oval-leafed pondweed [6]; AAH 296 g/ha): 5 (Herbicidal rate of 90% or more (almost completely withered)); herbicidal effect on Chinese sprangletop (D) (Chinese sprangletop; 296 g/ha): 1 (Herbicidal rate of 5% or more and less than 20%); N: redroot pigweed, herbicidal effect grade (redroot pigweed; [9]): 0 (Herbicidal rate of 5% or less (almost no effect)); H: barnyard grass, herbicidal effect grade (barnyard grass; 296 g/ha): 4 (Herbicidal rate of 70% or more and less than 90%); F: southern crabgrass, herbicidal effect grade (southern crabgrass [7]; [9]): 0 (Herbicidal rate of 5% or less (almost no effect))

Q: Cc1nn(C)c(=O)c(-c2c(-c3ccc(OCC(C)C)cc3)oc3ccc(F)cc23)c1O [9-027] was tested. Which “M: velvetleaf, herbicidal effect grade” value (velvetleaf; [10]) did it give?
A: 5 (Herbicidal rate of 90% or more (almost completely withered))

Q: And the “L: windgrass, herbicidal effect grade” value (windgrass [8])?
A: 4 (Herbicidal rate of 70% or more and less than 90%)

Q: And the “O: lambsquarters, herbicidal effect grade” value (lambsquarters [1]; [10])?
A: 5 (Herbicidal rate of 90% or more (almost completely withered))

Q: And the “herbicidal effect on persian speedwell (R)” value (persian speedwell; 320 g/ha)?
A: 5 (Herbicidal rate of 90% or more (almost completely withered))

Q: What about the “Q: false cleavers, herbicidal effect grade” value (false cleavers; [10]) of the same compound?
A: 0 (Herbicidal rate of 5% or less (almost no effect))

Q: And the “herbicidal effect on southern crabgrass (F)” value (southern crabgrass [2]; 320 g/ha)?
A: 5 (Herbicidal rate of 90% or more (almost completely withered))

Q: What about the “Herbicidal effect on E (rice flat sedge), foliage application” value (rice flat sedge; [10]) of the same compound?
A: 5 (Herbicidal rate of 90% or more (almost completely withered))

Q: And the “Herbicidal effect, C: oval-leafed pondweed” value (oval-leafed pondweed [3]; [10])?
A: 5 (Herbicidal rate of 90% or more (almost completely withered))

Q: And the “herbicidal effect on windgrass (L)” value (windgrass [4]; 320 g/ha)?
A: 5 (Herbicidal rate of 90% or more (almost completely withered))

Q: What about the “herbicidal effect on lambsquarters (O)” value (lambsquarters [5]; 320 g/ha) of the same compound?
A: 5 (Herbicidal rate of 90% or more (almost completely withered))

Q: And the “herbicidal effect on green foxtail (G)” value (green foxtail; 320 g/ha)?
A: 5 (Herbicidal rate of 90% or more (almost completely withered))

Q: What about the “herbicidal effect rating, C: oval-leafed pondweed” value (oval-leafed pondweed [6]; AAH 320 g/ha) of the same compound?
A: 4 (Herbicidal rate of 70% or more and less than 90%)

Q: And the “Herbicidal effect on D (Chinese sprangletop), foliage application” value (Chinese sprangletop; [10])?
A: 2 (Herbicidal rate of 20% or more and less than 40%)

Q: What about the “N: redroot pigweed, herbicidal effect grade” value (redroot pigweed; [10]) of the same compound?
A: 5 (Herbicidal rate of 90% or more (almost completely withered))

Q: What about the “herbicidal effect on barnyard grass (H)” value (barnyard grass; 320 g/ha) of the same compound?
A: 5 (Herbicidal rate of 90% or more (almost completely withered))

Q: What about the “F: southern crabgrass, herbicidal effect grade” value (southern crabgrass [7]; [10]) of the same compound?
A: 5 (Herbicidal rate of 90% or more (almost completely withered))

Q: Which results are given for CCCC(=O)Oc1c(C)nn(C)c(=O)c1-c1c(-c2ccc(OC)cc2)sc2cc(OCC)ccc12 [3-092]?
A: M: velvetleaf, herbicidal effect grade (velvetleaf; [10]): 0 (Herbicidal rate of 5% or less (almost no effect)); L: windgrass, herbicidal effect grade (windgrass [8]): 0 (Herbicidal rate of 5% or less (almost no effect)); O: lambsquarters, herbicidal effect grade (lambsquarters [1]; [10]): 4 (Herbicidal rate of 70% or more and less than 90%); R: persian speedwell, herbicidal effect grade (persian speedwell; 320 g/ha): 5 (Herbicidal rate of 90% or more (almost completely withered)); Q: false cleavers, herbicidal effect grade (false cleavers; [10]): 4 (Herbicidal rate of 70% or more and less than 90%); P: chickweed, herbicidal effect grade (chickweed; 320 g/ha): 5 (Herbicidal rate of 90% or more (almost completely withered)); F: southern crabgrass, herbicidal effect grade (southern crabgrass [2]; 320 g/ha): 0 (Herbicidal rate of 5% or less (almost no effect)); herbicidal effect on rice flat sedge (E) (rice flat sedge; 320 g/ha): 4 (Herbicidal rate of 70% or more and less than 90%); Herbicidal effect, C: oval-leafed pondweed (oval-leafed pondweed [3]; [10]): 3 (Herbicidal rate of 40% or more and less than 70%); L: windgrass, herbicidal effect grade (windgrass [4]; 320 g/ha): 0 (Herbicidal rate of 5% or less (almost no effect)); O: lambsquarters, herbicidal effect grade (lambsquarters [5]; 320 g/ha): 4 (Herbicidal rate of 70% or more and less than 90%); G: green foxtail, herbicidal effect grade (green foxtail; 320 g/ha): 0 (Herbicidal rate of 5% or less (almost no effect)); herbicidal effect rating, C: oval-leafed pondweed (oval-leafed pondweed [6]; AAH 320 g/ha): 3 (Herbicidal rate of 40% or more and less than 70%); N: redroot pigweed, herbicidal effect grade (redroot pigweed; [10]): 3 (Herbicidal rate of 40% or more and less than 70%); H: barnyard grass, herbicidal effect grade (barnyard grass; 320 g/ha): 0 (Herbicidal rate of 5% or less (almost no effect)); F: southern crabgrass, herbicidal effect grade (southern crabgrass [7]; [10]): 3 (Herbicidal rate of 40% or more and less than 70%)
